Test results taken from the supplement of paper PMC10307832.

Tests used:
Test in all cases: relative viability (nuclei count vs DMSO), 5 days (fraction); higher = more cells survive
[1] = compound: NS(=O)(=O)OC[C@@H]1C[C@@H](n2ccc3c(N[C@H]4CCc5ccccc54)ncnc32)C[C@@H]1O [MLN4924] + CC(=O)c1c(C)c2cnc(Nc3ccc(N4CCNCC4)cn3)nc2n(C2CCCC2)c1=O [Palbociclib] (partner 0.5 µM)
Summary of the method: (§1)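 Five library-drug doses in √10 steps were combined with a fixed anchor-drug dose, or a single drug was given alone, by pin tool to lung cancer cell lines in 1536-well plates the day after seeding. Nuclei were stained and counted after 5 days. Relative viability is the nuclei count in treated wells over that in vehicle wells, taken as the median of duplicate plates.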

[2] = compound: NS(=O)(=O)OC[C@@H]1C[C@@H](n2ccc3c(N[C@H]4CCc5ccccc54)ncnc32)C[C@@H]1O [MLN4924] + O=C(CCCCCCC(=O)Nc1ccccc1)NO [Vorinostat] (partner 1 µM)
Summary of the method: as §1

[3] = compound: CC[C@H](C)N1C=C(C2=C(C=C(C=C21)C3=CN=C(C=C3)N4CCNCC4)C(=O)NCC5=C(C=C(NC5=O)C)C)C [GSK126] + Nc1ncn([C@H]2C[C@H](O)[C@@H](CO)O2)c(=O)n1 [Decitabine] (partner 2 µM)
Summary of the method: as §1

[4] = compound: CC[C@H](C)N1C=C(C2=C(C=C(C=C21)C3=CN=C(C=C3)N4CCNCC4)C(=O)NCC5=C(C=C(NC5=O)C)C)C [GSK126] + Cc1nc(NC(=O)N2CCC[C@H]2C(N)=O)sc1-c1ccnc(C(C)(C)C(F)(F)F)c1 [Alpelisib] (partner 2 µM)
Summary of the method: as §1

Cell Line	relative viability ([1]; first compound 0.04 µM)	relative viability ([1]; first compound 0.1265 µM)	relative viability ([1]; first compound 0.4 µM)	relative viability ([1]; first compound 1.265 µM)	relative viability ([1]; first compound 4 µM)	relative viability ([2]; first compound 0.04 µM)	relative viability ([2]; first compound 0.1265 µM)	relative viability ([2]; first compound 0.4 µM)	relative viability ([2]; first compound 1.265 µM)	relative viability ([2]; first compound 4 µM)	relative viability ([3]; first compound 0.08 µM)	relative viability ([3]; first compound 0.253 µM)	relative viability ([3]; first compound 0.8 µM)	relative viability ([3]; first compound 2.53 µM)	relative viability ([3]; first compound 8 µM)	relative viability ([4]; first compound 0.08 µM)	relative viability ([4]; first compound 0.253 µM)	relative viability ([4]; first compound 0.8 µM)	relative viability ([4]; first compound 2.53 µM)	relative viability ([4]; first compound 8 µM)
HARA	0.324	0.233	0.169	0.0893	0.147	0.48	0.144	0.174	0.0809	0.0682	0.628	0.629	0.403	0.519	0.402	0.961	0.804	0.783	0.738	0.788
NCI-H2126	0.403	0.424	0.397	0.327	0.237	0.814	0.869	0.555	0.237	0.267	0.567	0.591	0.609	0.622	0.593	0.789	0.749	0.753	0.737	0.811
LCLC-103H	0.47	0.421	0.352	0.265	0.32	0.763	0.771	0.372	0.252	0.282	0.795	0.855	0.797	0.737	0.759	0.953	1.02	0.927	0.992	1.03
